Experimental data published in US20090299044A1 (priority 2006, published 2009).
Bridge positions count the residues as written; N and C are the ends. Square brackets hold non-standard residues; d marks the D form. Peptide text beside a SMILES is read from it. 1Nal = N[C@@H](Cc1cccc2ccccc12)C(=O)O

Experiments:
[1] = molecular target: T1, human Kv1.3 (CHO) (Homo sapiens, UniProt P22001); assay: cell-based
T1 construct: expressed in transfected cells; host or cells: CHO

[2] = molecular target: T2, human Kv1.1 (HEK293) (Homo sapiens, UniProt Q09470); assay: cell-based
T2 construct: expressed in transfected cells; host or cells: HEK293
T2 sequence (Q09470 whole entry): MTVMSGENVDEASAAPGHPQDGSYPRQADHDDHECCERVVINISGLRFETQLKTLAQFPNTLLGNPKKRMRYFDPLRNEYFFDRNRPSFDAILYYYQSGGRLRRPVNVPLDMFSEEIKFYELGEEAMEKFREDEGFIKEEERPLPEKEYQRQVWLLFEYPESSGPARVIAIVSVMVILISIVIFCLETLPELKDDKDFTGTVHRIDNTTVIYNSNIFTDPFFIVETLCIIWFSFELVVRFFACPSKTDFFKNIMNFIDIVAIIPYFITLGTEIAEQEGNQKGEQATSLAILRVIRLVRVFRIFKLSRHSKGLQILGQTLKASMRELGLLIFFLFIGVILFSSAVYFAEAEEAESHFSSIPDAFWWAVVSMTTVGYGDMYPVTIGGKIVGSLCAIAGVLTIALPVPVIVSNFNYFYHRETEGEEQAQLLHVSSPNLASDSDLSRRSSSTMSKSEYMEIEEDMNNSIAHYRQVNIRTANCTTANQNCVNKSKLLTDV

T1 sequence (P22001 whole entry): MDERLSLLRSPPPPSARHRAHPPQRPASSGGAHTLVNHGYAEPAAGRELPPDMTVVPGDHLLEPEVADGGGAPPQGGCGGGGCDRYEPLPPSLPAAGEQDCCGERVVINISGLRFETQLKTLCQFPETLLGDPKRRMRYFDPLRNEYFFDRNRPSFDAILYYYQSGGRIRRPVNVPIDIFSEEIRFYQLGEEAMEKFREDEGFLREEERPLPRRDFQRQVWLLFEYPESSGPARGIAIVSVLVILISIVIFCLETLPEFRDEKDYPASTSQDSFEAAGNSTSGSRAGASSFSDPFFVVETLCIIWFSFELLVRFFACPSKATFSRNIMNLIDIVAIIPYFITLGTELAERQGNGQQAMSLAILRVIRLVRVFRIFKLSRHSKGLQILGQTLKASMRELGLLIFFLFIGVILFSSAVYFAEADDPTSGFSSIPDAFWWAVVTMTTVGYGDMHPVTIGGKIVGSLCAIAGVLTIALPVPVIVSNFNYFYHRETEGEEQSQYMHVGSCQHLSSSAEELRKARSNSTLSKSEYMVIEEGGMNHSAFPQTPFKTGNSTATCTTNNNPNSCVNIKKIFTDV

Row | Compound | IC50 [1] [nM] | IC50 [2] [nM]
1 | CC[C@H](C)[C@@H]1NC(=O)[C@H](CCCCN)NC(=O)[C@@H](NC(=O)[C@H](CCCCN)NC(=O)[C@@H](NC(=O)[C@H](CC(N)=O)NC(=O)[C@@H](NC(=O)[C@@H](NC(=O)[C@@H](NC(=O)CN)C(C)C)[C@@H](C)CC)[C@@H](C)CC)C(C)C)CSSC[C@@H]2NC(=O)[C@H](CCCCN)NC(=O)CNC(=O)[C@H](Cc3ccccc3)NC(=O)[C@H](CCCNC(=N)N)NC(=O)[C@H](CCSC)NC(=O)CNC(=O)[C@H](C)NC(=O)[C@H](CCCCN)NC(=O)[C@H](CCCCN)NC(=O)[C@@H]3CSSC[C@@H](C(=O)N[C@H](C(=O)N4CCC[C@H]4C(=O)N[C@@H](CCCCN)C(=O)O)[C@@H](C)O)NC(=O)[C@H](Cc4c[nH]cn4)NC(=O)[C@H](CSSC[C@H](NC(=O)[C@H](CCC(N)=O)NC(=O)[C@H](CCCNC(=N)N)NC(=O)[C@H](CO)NC1=O)C(=O)N[C@@H](CC(C)C)C(=O)N[C@@H](CCC(=O)O)C(=O)N1CCC[C@H]1C(=O)N3)NC(=O)[C@H](CCCCN)NC(=O)CNC(=O)[C@H](CC(N)=O)NC(=O)[C@H](CCC(=O)O)NC2=O [M29E] (H-GVIINVKCKISRQCLEPCKKAGMRFGKCENGKCHCTPK-OH; disulfide 8-28, 14-33, 18-35) | > 3.33 | > 3.33
2 | CC[C@H](C)[C@@H]1NC(=O)[C@H](CCCCN)NC(=O)[C@@H](NC(=O)[C@H](CCCCN)NC(=O)[C@@H](NC(=O)[C@H](CC(N)=O)NC(=O)[C@@H](NC(=O)[C@@H](NC(=O)[C@@H](NC(=O)[C@H](C)N)C(C)C)[C@@H](C)CC)[C@@H](C)CC)C(C)C)CSSC[C@@H]2NC(=O)[C@H](CCCCN)NC(=O)CNC(=O)[C@H](Cc3ccccc3)NC(=O)[C@H](CCCNC(=N)N)NC(=O)[C@H](CCSC)NC(=O)CNC(=O)[C@H](C)NC(=O)[C@H](CCCCN)NC(=O)[C@H](CCCCN)NC(=O)[C@@H]3CSSC[C@@H](C(=O)N[C@H](C(=O)N4CCC[C@H]4C(=O)N[C@@H](CCCCN)C(=O)O)[C@@H](C)O)NC(=O)[C@H](Cc4c[nH]cn4)NC(=O)[C@H](CSSC[C@H](NC(=O)[C@H](CCC(N)=O)NC(=O)[C@H](CCCNC(=N)N)NC(=O)[C@H](CO)NC1=O)C(=O)N[C@@H](CC(C)C)C(=O)N[C@@H](CCC(=O)O)C(=O)N1CCC[C@H]1C(=O)N3)NC(=O)[C@H](CCCCN)NC(=O)CNC(=O)[C@H](CC(N)=O)NC(=O)[C@H](CCSC)NC2=O [G1A] (H-AVIINVKCKISRQCLEPCKKAGMRFGKCMNGKCHCTPK-OH; disulfide 8-28, 14-33, 18-35) | 0.0411 | 0.0139
3 | CC[C@H](C)[C@@H]1NC(=O)[C@H](CCCCN)NC(=O)[C@@H](NC(=O)[C@H](CCCCN)NC(=O)[C@@H](NC(=O)[C@H](CC(N)=O)NC(=O)[C@@H](NC(=O)[C@@H](NC(=O)[C@@H](NC(=O)CN)C(C)C)[C@@H](C)CC)[C@@H](C)CC)C(C)C)CSSC[C@@H]2NC(=O)[C@H](CCCCN)NC(=O)CNC(=O)[C@H](Cc3ccccc3)NC(=O)[C@H](CCCNC(=N)N)NC(=O)[C@H](C)NC(=O)CNC(=O)[C@H](C)NC(=O)[C@H](CCCCN)NC(=O)[C@H](CCCCN)NC(=O)[C@@H]3CSSC[C@@H](C(=O)N[C@H](C(=O)N4CCC[C@H]4C(=O)N[C@@H](CCCCN)C(=O)O)[C@@H](C)O)NC(=O)[C@H](Cc4c[nH]cn4)NC(=O)[C@H](CSSC[C@H](NC(=O)[C@H](CCC(N)=O)NC(=O)[C@H](CCCNC(=N)N)NC(=O)[C@H](CO)NC1=O)C(=O)N[C@@H](CC(C)C)C(=O)N[C@@H](CCC(=O)O)C(=O)N1CCC[C@H]1C(=O)N3)NC(=O)[C@H](CCCCN)NC(=O)CNC(=O)[C@H](CC(N)=O)NC(=O)[C@H](CCSC)NC2=O [M23A] (H-GVIINVKCKISRQCLEPCKKAGARFGKCMNGKCHCTPK-OH; disulfide 8-28, 14-33, 18-35) | 0.0714 | 0.0386
4 | CC[C@H](C)[C@@H]1NC(=O)[C@H](CCCCN)NC(=O)[C@@H](NC(=O)[C@H](CCCCN)NC(=O)[C@@H](NC(=O)[C@H](CC(N)=O)NC(=O)[C@@H](NC(=O)[C@@H](NC(=O)[C@@H](NC(=O)CN)C(C)C)[C@@H](C)CC)[C@@H](C)CC)C(C)C)CSSC[C@@H]2NC(=O)[C@H](CCCCN)NC(=O)CNC(=O)[C@H](Cc3ccccc3)NC(=O)[C@H](CCCNC(=N)N)NC(=O)[C@H](CCSC)NC(=O)CNC(=O)[C@H](C)NC(=O)[C@H](CCCCN)NC(=O)[C@H](CCCCN)NC(=O)[C@@H]3CSSC[C@@H](C(=O)N[C@H](C(=O)N4CCC[C@H]4C(=O)N[C@@H](CCCCN)C(=O)O)[C@@H](C)O)NC(=O)[C@H](Cc4c[nH]cn4)NC(=O)[C@H](CSSC[C@H](NC(=O)[C@H](CCC(N)=O)NC(=O)[C@H](CCCNC(=N)N)NC(=O)[C@H](CO)NC1=O)C(=O)N[C@@H](CC(C)C)C(=O)N[C@@H](CCC(=O)O)C(=O)N1CCC[C@H]1C(=O)N3)NC(=O)[C@H](CCCNC(=N)N)NC(=O)CNC(=O)[C@H](CC(N)=O)NC(=O)[C@H](CCSC)NC2=O [K32R] (H-GVIINVKCKISRQCLEPCKKAGMRFGKCMNGRCHCTPK-OH; disulfide 8-28, 14-33, 18-35) | 0.0308 | 0.00724
5 | CC[C@H](C)[C@@H]1NC(=O)[C@H](CCCCN)NC(=O)[C@@H](NC(=O)[C@H](CCCCN)NC(=O)[C@@H](NC(=O)[C@H](CC(N)=O)NC(=O)[C@@H](NC(=O)[C@@H](NC(=O)[C@@H](NC(=O)CN)C(C)C)[C@@H](C)CC)[C@@H](C)CC)C(C)C)CSSC[C@@H]2NC(=O)[C@H](CCCCN)NC(=O)CNC(=O)[C@H](Cc3ccccc3)NC(=O)[C@H](CCCNC(=N)N)NC(=O)[C@H](CCSC)NC(=O)CNC(=O)[C@H](C)NC(=O)[C@H](CCCCN)NC(=O)[C@H](CCCCN)NC(=O)[C@@H]3CSSC[C@@H](C(=O)N[C@H](C(=O)N[C@@H](Cc4cccc5ccccc45)C(=O)N[C@@H](CCCCN)C(=O)O)[C@@H](C)O)NC(=O)[C@H](Cc4c[nH]cn4)NC(=O)[C@H](CSSC[C@H](NC(=O)[C@H](CCC(N)=O)NC(=O)[C@H](CCCNC(=N)N)NC(=O)[C@H](CO)NC1=O)C(=O)N[C@@H](CC(C)C)C(=O)N[C@@H](CCC(=O)O)C(=O)N1CCC[C@H]1C(=O)N3)NC(=O)[C@H](CCCCN)NC(=O)CNC(=O)[C@H](CC(N)=O)NC(=O)[C@H](CCSC)NC2=O [P37Nal] (H-GVIINVKCKISRQCLEPCKKAGMRFGKCMNGKCHCT[1Nal]K-OH; disulfide 8-28, 14-33, 18-35) | 0.0708 | 0.00674
6 | CC[C@H](C)[C@@H]1NC(=O)[C@H](CCCCN)NC(=O)[C@@H](NC(=O)[C@H](CCCCN)NC(=O)[C@@H](NC(=O)[C@H](CC(N)=O)NC(=O)[C@@H](NC(=O)[C@@H](NC(=O)[C@@H](NC(=O)CN)C(C)C)[C@@H](C)CC)[C@@H](C)CC)C(C)C)CSSC[C@@H]2NC(=O)[C@H](CCCCN)NC(=O)CNC(=O)[C@H](Cc3ccccc3)NC(=O)[C@H](Cc3cccc4ccccc34)NC(=O)[C@H](CCSC)NC(=O)CNC(=O)[C@H](C)NC(=O)[C@H](CCCCN)NC(=O)[C@H](CCCCN)NC(=O)[C@@H]3CSSC[C@@H](C(=O)N[C@H](C(=O)N4CCC[C@H]4C(=O)N[C@@H](CCCCN)C(=O)O)[C@@H](C)O)NC(=O)[C@H](Cc4c[nH]cn4)NC(=O)[C@H](CSSC[C@H](NC(=O)[C@H](CCC(N)=O)NC(=O)[C@H](CCCNC(=N)N)NC(=O)[C@H](CO)NC1=O)C(=O)N[C@@H](CC(C)C)C(=O)N[C@@H](CCC(=O)O)C(=O)N1CCC[C@H]1C(=O)N3)NC(=O)[C@H](CCCCN)NC(=O)CNC(=O)[C@H](CC(N)=O)NC(=O)[C@H](CCSC)NC2=O [R24Nal] (H-GVIINVKCKISRQCLEPCKKAGM[1Nal]FGKCMNGKCHCTPK-OH; disulfide 8-28, 14-33, 18-35) | 0.0453 | 0.00285
7 | CC[C@H](C)[C@@H]1NC(=O)[C@H](CCCCN)NC(=O)[C@@H](NC(=O)[C@H](CCCCN)NC(=O)[C@@H](NC(=O)[C@H](Cc2cccc3ccccc23)NC(=O)[C@@H](NC(=O)[C@@H](NC(=O)[C@@H](NC(=O)CN)C(C)C)[C@@H](C)CC)[C@@H](C)CC)C(C)C)CSSC[C@@H]2NC(=O)[C@H](CCCCN)NC(=O)CNC(=O)[C@H](Cc3ccccc3)NC(=O)[C@H](CCCNC(=N)N)NC(=O)[C@H](CCSC)NC(=O)CNC(=O)[C@H](C)NC(=O)[C@H](CCCCN)NC(=O)[C@H](CCCCN)NC(=O)[C@@H]3CSSC[C@@H](C(=O)N[C@H](C(=O)N4CCC[C@H]4C(=O)N[C@@H](CCCCN)C(=O)O)[C@@H](C)O)NC(=O)[C@H](Cc4c[nH]cn4)NC(=O)[C@H](CSSC[C@H](NC(=O)[C@H](CCC(N)=O)NC(=O)[C@H](CCCNC(=N)N)NC(=O)[C@H](CO)NC1=O)C(=O)N[C@@H](CC(C)C)C(=O)N[C@@H](CCC(=O)O)C(=O)N1CCC[C@H]1C(=O)N3)NC(=O)[C@H](CCCCN)NC(=O)CNC(=O)[C@H](CC(N)=O)NC(=O)[C@H](CCSC)NC2=O [N5Nal] (H-GVII[1Nal]VKCKISRQCLEPCKKAGMRFGKCMNGKCHCTPK-OH; disulfide 8-28, 14-33, 18-35) | 0.0218 | < 0.00152
8 | CC[C@H](C)[C@@H]1NC(=O)[C@H](CCCCN)NC(=O)[C@@H](NC(=O)[C@H](CCCCN)NC(=O)[C@@H](NC(=O)[C@H](CC(N)=O)NC(=O)[C@@H](NC(=O)[C@H](CCCNC(=N)N)NC(=O)[C@@H](NC(=O)CN)C(C)C)[C@@H](C)CC)C(C)C)CSSC[C@@H]2NC(=O)[C@H](CCCCN)NC(=O)CNC(=O)[C@H](Cc3ccccc3)NC(=O)[C@H](CCCNC(=N)N)NC(=O)[C@H](CCSC)NC(=O)CNC(=O)[C@H](C)NC(=O)[C@H](CCCCN)NC(=O)[C@H](CCCCN)NC(=O)[C@@H]3CSSC[C@@H](C(=O)N[C@H](C(=O)N4CCC[C@H]4C(=O)N[C@@H](CCCCN)C(=O)O)[C@@H](C)O)NC(=O)[C@H](Cc4c[nH]cn4)NC(=O)[C@H](CSSC[C@H](NC(=O)[C@H](CCC(N)=O)NC(=O)[C@H](CCCNC(=N)N)NC(=O)[C@H](CO)NC1=O)C(=O)N[C@@H](CC(C)C)C(=O)N[C@@H](CCC(=O)O)C(=O)N1CCC[C@H]1C(=O)N3)NC(=O)[C@H](CCCCN)NC(=O)CNC(=O)[C@H](CC(N)=O)NC(=O)[C@H](CCSC)NC2=O [I3R] (H-GVRINVKCKISRQCLEPCKKAGMRFGKCMNGKCHCTPK-OH; disulfide 8-28, 14-33, 18-35) | 0.0199 | 0.00247
